# Assay results as given in patent publication US5654422A, “Acylated γ-cyclodextrins” (priority 1994, dated 1997).
# Read-outs that look alike come from different tables or passages of the source.
# Key:
# [1] = cited from earlier work
# [2] = G. Antlsperger, 6th International Symposium on Cyclodextrins, 1992; cited from earlier work
# [3] = cited from earlier work; remark: listed apart in the source
# [4] = zahn-wellens test, 336 h
# Procedure: The biological degradability was determined by means of the Zahn-Wellens Test (OECD Guidelines for testing of Chemicals 302B, Adopted by the Council on 17th Jul. 1992).
compound,measurement,setting,value
"OC[C@H]1O[C@@H]2O[C@H]3[C@H](O)[C@@H](O)[C@@H](O[C@H]4[C@H](O)[C@@H](O)[C@@H](O[C@H]5[C@H](O)[C@@H](O)[C@@H](O[C@H]6[C@H](O)[C@@H](O)[C@@H](O[C@H]7[C@H](O)[C@@H](O)[C@@H](O[C@H]8[C@H](O)[C@@H](O)[C@@H](O[C@H]9[C@H](O)[C@@H](O)[C@@H](O[C@H]1[C@H](O)[C@H]2O)O[C@@H]9CO)O[C@@H]8CO)O[C@@H]7CO)O[C@@H]6CO)O[C@@H]5CO)O[C@@H]4CO)O[C@@H]3CO [γ-CD, γ-cyclodextrin]",precipitation of complexes at higher concentrations,"[1]; U.S. Pat. No. 4,764,604",frequently precipitate out at higher concentrations
same,solubilizing capacity / properties,[1]; prior art statement,comparatively low
same,toxicological properties,[2],favorable toxicological properties
same,solubility in water,[3]; native γ-cyclodextrin,18.7 % by weight
same,solubility in water,[3]; prior art statement,comparatively poorly soluble in water
"Acetyl-γ-CD (DS, 0.83) [Ex. 2 Ac-gamma-CD(0.83)]",Degradation ZaWe-14d,[4],98%
"Methyl-γ-cyclodextrin (DS,1.8) [Me-gamma-CD(1.8)]",Degradation ZaWe-14d,[4],14%
hydroxypropyl-γ-cyclodextrin [Hp-gamma-CD(0.9)],Degradation ZaWe-14d,[4],25%
